Experimental data as given in publication PMC12285759 (RSC Advances, 2025).

System: Vero Cells
Assay: MTT assay, cytotoxicity of the test compounds
Type: cell-based
Details: not tested for inhibitory effect

SMILES: O=c1ccn([C@@H]2O[C@H](COCc3ccccc3)[C@H](OCc3ccccc3)[C@H](OCc3ccccc3)[C@H]2I)c(=O)[nH]1 [3h]
- cytotoxicity (in words): cytotoxic
